Measured values as given in paper PMC4382154, “Screening of the Pan-African Natural Product Library Identifies Ixoratannin A-2 and Boldine as Novel HIV-1 Inhibitors” (PLoS ONE, 2015).
Like-named read-outs stand apart in the source and are kept apart here.

Legend:
Type in all cases: cell-based
HIV-1NL4-3 [1] = assay: HIV-1 replication assay in PBMCs (p24Gag ELISA); conditions: Day 12
Experimental: PBMCs from HIV-1 negative subjects, purchased commercially (StemCell Technologies, Vancouver, Canada), were maintained in RPMI-1640 media (Sigma) supplemented with penicillin/streptomycin plus 10% fetal calf serum (R10+). 72 h prior to viral infection, PBMCs were stimulated by addition of 5 μg/mL phytohaemaglutanin (PHA) (Day 0) and maintained in R10+ medium supplemented with 100 units/mL human IL-2. At Day 3 following cellular activation, 3x10^5 cells were infected with HIV-1NL4-3 at a multiplicity of infection of 0.003 (0.3% infected cells) and incubated at 37°C for 6h, followed by wash and re-suspension in fresh R10+ medium supplemented with 100 units/mL human IL-2 and with or without compounds at defined concentrations. Culture supernatants were collected and replaced with fresh medium supplemented with human IL-2 every 3 days (i.e., Days 6, 9, and 12) with or without fresh compounds. Viral replication at day 12 was monitored by measuring cell culture supernatant levels of p24^Gag by ELISA (XpressBio, Frederick, MD) following manufacturer’s instructions.

HIV-1PR+RT = HIV-1PR+RT replication in CEM-GXR cells; conditions: for HIV-1PR+RT replication fold higher than HIV-1NL4-3: 75 μM; for EC50: Human immunodeficiency virus 1, CEM-GXR, 96 h, read-out: EC50 HIV-1PR+RT
Experimental: (§1) HIV-1Δvpu was constructed by digesting plasmid p210-13 3’ Δ-vpu with EcoRI and NheI enzymes. The resulting DNA fragment was then ligated into wild-type pNL4-3 plasmid digested with the same enzymes. HIV-1Δvpu and HIV-1NL4-3 viral stocks were prepared by transfection of HEK-293T cells, as previously described. Patient plasma-HIV-1 RNA sequences were analyzed for resistance mutations using the HIV Drug Resistance Database Genotype Resistance Interpretation Algorithm (hivdb.stanford.edu). Recombinant HIV-1NL4-3 expressing patient-derived HIV-1 sequences harboring resistance mutations to protease and reverse transcriptase inhibitors (HIV-1PR+RT), reverse transcriptase inhibitors (HIV-1RT), and integrase inhibitors (HIV-1INT) were generated by homologous recombination following co-transfection as reported.
(§2) CEM-GXR cells are an immortalized CD4+ T-lymphocyte line engineered that naturally express the HIV-1 coreceptor CXCR4 and have been further engineered to express the HIV-1 co-receptor CCR5 and a Tat-driven LTR-GFP expression cassette. As such, intracellular GFP expression indicates HIV-1 infection. Cultures of 10^5 CEM-GXR cells were seeded into 96-well plates with RPMI-1640 media (Sigma) supplemented with penicillin/streptomycin plus 20% fetal calf serum (R20+), infected with HIV-1 at a multiplicity of infection of 0.03 (to achieve 3% infected cells on Day 2), and incubated at 37°C and 5% CO2. 24 hours later, cells were pelleted at 750 g and resuspended in R20+ containing compound or 0.1% DMSO. […] Cells were then incubated at 37°C and 5% CO2 for an additional 72 h. 5,000 cells from each culture were measured for cell toxicity and GFP expression by flow cytometry. Flow cytometry data were analyzed using FlowJo v. 8.8.7 software (FlowJo LLC, Ashland, OR). […] Background GFP expression in uninfected cultures was set at 0.05% GFP-positive cells. For each experiment, all data points were obtained in triplicate. All data are reported as the mean ± s.e.m. from at least 3 independent experiments performed with different virus stocks and/or performed on different days. However, all experiments that compare HIV-1NL4-3 and mutant HIV-1 were performed in parallel. EC50 and CC50 values for each compound were calculated from at least four concentrations. Statistical analyses were performed using Student’s unpaired t test, with a p value < 0.05 plus a Bonferroni correction to adjust for multiple comparisons considered significant.
(§3) To investigate the mechanisms by which ixoratannin A-2 and boldine may block HIV-1 replication, we used a previously-reported HIV-1NL4-3 strain lacking the Vpu coding region (HIV-1Δvpu). We also constructed recombinant HIV-1NL4-3 strains harboring protease, reverse transcriptase, and/or integrase sequences of HIV-1 strains from patients who had developed resistance to the protease inhibitor Indinavir (IND), the non-nucleoside reverse transcriptase inhibitor Efavirenz (EFV), and/or the integrase inhibitor Raltegravir (RAL) (denoted HIV-1PR+RT, HIV-1RT, and HIV-1INT, respectively). Re-sequencing of the recombinant viruses confirmed the presence of multiple mutations known to confer resistance to IND, EFV, and/or RAL (Table 2).

HIV-1RT = assay: microbe, parasite or virus in culture; conditions: for EC50: Human immunodeficiency virus 1, CEM-GXR, 96 h, read-out: EC50 HIV-1RT
Experimental: CEM-GXR cells are an immortalized CD4+ T-lymphocyte line engineered that naturally express the HIV-1 coreceptor CXCR4 and have been further engineered to express the HIV-1 co-receptor CCR5 and a Tat-driven LTR-GFP expression cassette. As such, intracellular GFP expression indicates HIV-1 infection [26]. Cultures of 10^5 CEM-GXR cells were seeded into 96-well plates with RPMI-1640 media (Sigma) supplemented with penicillin/streptomycin plus 20% fetal calf serum (R20+), infected with HIV-1 at a multiplicity of infection of 0.03 (to achieve 3% infected cells on Day 2), and incubated at 37°C and 5% CO2. 24 hours later, cells were pelleted at 750 g and resuspended in R20+ containing compound or 0.1% DMSO. […] Cells were then incubated at 37°C and 5% CO2 for an additional 72 h. 5,000 cells from each culture were measured for cell toxicity and GFP expression by flow cytometry. […] Background GFP expression in uninfected cultures was set at 0.05% GFP-positive cells. For each experiment, all data points were obtained in triplicate. All data are reported as the mean ± s.e.m. from at least 3 independent experiments performed with different virus stocks and/or performed on different days. […] EC50 and CC50 values for each compound were calculated from at least four concentrations. Statistical analyses were performed using Student’s unpaired t test, with a p value < 0.05 plus a Bonferroni correction to adjust for multiple comparisons considered significant.

[2] = Cell toxicity in HIV-1 infected CEM-GXR cultures (forward/side scatter); conditions: human, HIV-1NL4-3-infected CEM-GXR cells (CD4+ T-lymphocyte line), Day 4
Experimental: as §2
(§4) To assess the effects of these eight compounds on cell viability and HIV-1 replication, we infected a GFP-reporter CEM CD4+ T cell line (CEM-GXR) with the NL4-3 strain of HIV-1 (HIV-1NL4-3). Briefly, cells were infected with HIV-1NL4-3 at a multiplicity of infection of 0.03 (Day 0), followed by removal of HIV-1 and addition of compound (or 0.1% DMSO vehicle control) 24 hours later (Day 1) and incubation for an additional 72 hours to allow HIV-1 spread (Days 2–4). On Days 2 and/or 4, the percent HIV-1 infected (i.e., GFP-expressing) cells was measured by flow cytometry. Cell viability was assessed by measuring the percentage of cells displaying normal forward- and side-scatter parameters in drug-treated, HIV-1 infected cultures compared to 0.1% DMSO-treated, HIV-1 infected control cultures. […] HIV-1NL4-3 replication was unaffected by the presence of 0.1% DMSO vehicle control (Fig. 2B).

[3] = PBMC cytotoxicity (ViaCount Assay); conditions: human, all assessed concentrations, read-out: PBMC viability relative to PBMCs in 0.1% DMSO
Experimental: Cytotoxicity was determined by ViaCount Assay (Millipore). Briefly, Day 3 PHA-activated PBMCs (3*10^5) were cultured in R10+ supplemented with 100 units/mL human IL-2 in the presence of 0.1% DMSO or compounds at defined concentrations. At Day 5, 15 μL of each PBMC culture was mixed with Guava ViaCount Reagent at a 1:10 dilution. Data were collected using a Guava EasyCyte HT Flow Cytometer (Millipore).

HIV-1NL4-3 [4] = assay: microbe, parasite or virus in culture; conditions: for percent GFP-positive (HIV-infected) cells: 100 μM; for selectivity index (SI): CC50 over EC50 in CEM-GXR cells; for EC50: read-out: HIV-1NL4-3 inhibition (EC50)
Experimental: as §2, §4

HIV-1Δvpu = HIV-1Δvpu replication in CEM-GXR cells; conditions: for fold less effective at inhibiting HIV-1Δvpu compared to HIV-1NL4-3: 75 μM, CEM-GXR cells; for EC50: Human immunodeficiency virus 1, CEM-GXR, 96 h, read-out: EC50 HIV-1Δvpu
Experimental: as §1, §2, §3

HIV-1INT = HIV-1INT replication in CEM-GXR cells; conditions: for EC50: Human immunodeficiency virus 1, CEM-GXR, 96 h, read-out: EC50 HIV-1INT
Experimental: as §1, §2, §3

[5] = concentrations up to 75 or 100 μM, CEM-GXR cells

| SMILES | HIV-1PR+RT replication fold higher than HIV-1NL4-3 (HIV-1PR+RT; CEM-GXR cells) | EC50 (HIV-1PR+RT) | EC50 (HIV-1RT) | CC50 at 72 h [2] | selectivity index (SI) (HIV-1NL4-3 [4]) | fold less effective at inhibiting HIV-1Δvpu compared to HIV-1NL4-3 (HIV-1Δvpu) | EC50 (HIV-1Δvpu) | EC50 (HIV-1INT) | also measured |
| --- | --- | --- | --- | --- | --- | --- | --- | --- | --- |
| COc1cc2c(cc1O)C[C@H]1c3c(cc(O)c(OC)c3-2)CCN1C [boldine] | 1.5 fold | > 100 µM | > 100 µM | > 100 µM | 4.1 | 1.3 fold | > 100 µM | > 100 µM | reduced HIV-1 replication in PBMCs (p24Gag) (HIV-1NL4-3 [1]; 100 μM): 47.0%; HIV-1PR+RT replication fold greater vs. HIV-1NL4-3 (HIV-1PR+RT; 25 μM, CEM-GXR cells): 1.4 fold; HIV-1PR+RT replication fold increased vs. HIV-1NL4-3 (HIV-1PR+RT; concentration not stated): 1.4 fold; inhibition of HIV-1PR+RT (HIV-1PR+RT; [5]): < 50%; inhibition of HIV-1RT (HIV-1RT; [5]): < 50%; viability [3]: > 85%; percent GFP-positive (HIV-infected) cells (HIV-1NL4-3 [4]; Day 2, HIV-1NL4-3-infected CEM-GXR cells (infected control 3.14)): 2.17%; percent GFP-positive (HIV-infected) cells (HIV-1NL4-3 [4]; Day 4, HIV-1NL4-3-infected CEM-GXR cells (infected control 10.80)): 4.09%; EC50 (HIV-1NL4-3 [4]; Human immunodeficiency virus 1, CEM-GXR, 96 h): 50.2 µM; inhibition of HIV-1INT (HIV-1INT; [5]): < 50% |
| Oc1cc(O)c2c(c1)OC1(c3ccc(O)c(O)c3)Oc3c4c(c5c(c3C2C1O)OC1(c2ccc(O)c(O)c2)Oc2cc(O)cc(O)c2C5C1O)OC(c1ccc(O)c(O)c1)C(O)C4 (stereo not drawn) [ixoratannin A-2] | 1.5 fold | 36.4 µM | 33.7 µM | 57.5 µM | 1.7 | 1.4 fold | 52 µM | 38.4 µM | reduced HIV-1 replication in PBMCs (p24Gag) (HIV-1NL4-3 [1]; 25 μM): 39.0%; viability ([3]; PHA-activated PBMCs): > 85%; EC50 (HIV-1NL4-3 [4]; Human immunodeficiency virus 1, 96 h, CEM-GXR cells, Day 4): 34.4 µM; HIV-1INT replication fold higher than HIV-1NL4-3 (HIV-1INT; 75 μM, CEM-GXR cells): 1.5 fold |
